≈ marks a conversion by molar mass, not a printed value. Calls of active or inactive are those of the source. The rule behind the calls is not given here.
Experiments:
Staphylococcus aureus [1] = assay: Antimicrobial activity against Staphylococcus aureus ATCC 25923 assessed as zone of inhibition at 125 ug/ml measured after 24 hrs by disc diffusion method; type: functional, organism-based; details: dose 125.0 µg/ml
Staphylococcus aureus [2] = assay: Antimicrobial activity against Staphylococcus aureus ATCC 25923 assessed as bacterial growth inhibition measured after 24 hrs by CLSI based agar dilution method; type: functional
Pseudomonas aeruginosa = assay: Antimicrobial activity against Pseudomonas aeruginosa ATCC 27853 assessed as bacterial growth inhibition measured after 24 hrs by resazurin dye based broth microdilution method; details: ATCC 27853, 24 h
[3] = Solubility of the compound in 5% DMSO in MHB assessed as precipitation at up to 3.9 ug/ml measured over 24 hrs; type: physicochemical; details: dose < 3.9 µg/ml
[4] = Inhibition of Staphylococcus aureus sortase A using Abz-LPETGK(Dnp)-NH2 fluorescent peptide as a substrate assessed as substrate cleavage measured over 60 mins by FRET assay
HEK293 [5] = assay: Cytotoxicity against HEK293 cells assessed as reduction in cell viability at 31.3 to 1000 ug/ml measured after 24 hrs by resazurin dye based cell viability assay; details: human, hek293, 24 h, dose 31.3-1000 µg/ml
Staphylococcus aureus [6] = assay: Antimicrobial activity against Staphylococcus aureus ATCC 25923 assessed as bacterial growth inhibition measured after 24 hrs by resazurin dye based broth microdilution method; type: functional
Escherichia coli = assay: Antimicrobial activity against Escherichia coli ATCC 25922 assessed as bacterial growth inhibition measured after 24 hrs by resazurin dye based broth microdilution method; type: functional
Staphylococcus aureus [7] = assay: Antimicrobial activity against Staphylococcus aureus MRSA ATCC 43300 assessed as bacterial growth inhibition measured after 24 hrs by resazurin dye based broth microdilution method; type: functional
[8] = Ratio of MIC for antimicrobial activity against Staphylococcus aureus ATCC 25923 to IC50 for inhibition of Staphylococcus aureus sortase A using Abz-LPETGK(Dnp)-NH2 fluorescent peptide as substrate; type: toxicity
[9] = Solubility of the compound in 5% DMSO in MHB assessed as precipitation at up to 2.0 ug/ml measured over 24 hrs; type: physicochemical; details: dose < 2 µg/ml
Staphylococcus aureus [10] = assay: Antimicrobial activity against Staphylococcus aureus ATCC 25923 assessed as zone of inhibition at 250 ug/ml measured after 24 hrs by disc diffusion method; type: functional, organism-based; details: dose 250.0 µg/ml
Staphylococcus aureus [11] = assay: Antimicrobial activity against Staphylococcus aureus ATCC 25923 assessed as zone of inhibition at 500 ug/ml measured after 24 hrs by disc diffusion method; type: functional
[12] = Solubility of the compound in 5% DMSO in MHB assessed as precipitation at up to 500 ug/ml measured over 24 hrs; type: physicochemical; details: dose < 500 µg/ml
HEK293 [13] = assay: Cytotoxicity against HEK293 cells assessed as reduction in cell viability at 62.5 to 2000 ug/ml measured after 24 hrs by resazurin dye based cell viability assay; details: human, hek293, 24 h, dose 62.5-2000 µg/ml

With `COc1ccc2cc3[n+](cc2c1OC)CCc1cc2c(cc1-3)OCO2` [BERBERINE] the Activity (Staphylococcus aureus [1]) was “Active”, the MIC (Staphylococcus aureus [2]) was 125 µg/mL and the MIC (Pseudomonas aeruginosa) was 500 µg/mL. For the same compound, the solubility [3] was “Soluble”, the IC50 [4] was 6.9 µg/mL and the Activity (HEK293 [5]) was “Non-Toxic”. The MIC (Staphylococcus aureus [6]) was 125 µg/mL, the MIC (Escherichia coli) was 250 µg/mL and the MIC (Staphylococcus aureus [7]) was 125 µg/mL. For the same compound, the Ratio [8] was 18.1.

With `O=C(/C=C/c1ccccc1)c1ccccc1` [CHALCONE] the MIC (Staphylococcus aureus [2]) was 125 µg/mL (≈ 600 µM), the solubility [9] was “Soluble” and the MIC (Pseudomonas aeruginosa) was 500 µg/mL (≈ 2400 µM). The Activity (Staphylococcus aureus [10]) was “Active”, the IC50 [4] was 25.2 µg/mL (≈ 121 µM) and the Activity (HEK293 [5]) was “Toxic”. It also gave an MIC (Staphylococcus aureus [6]) of 125 µg/mL (≈ 600 µM), an MIC (Escherichia coli) of 500 µg/mL (≈ 2400 µM) and an MIC (Staphylococcus aureus [7]) of 125 µg/mL (≈ 600 µM). The zone of inhibition at 500 µg/mL (Staphylococcus aureus [11]; read-out: DIZ) was 16 mm and the Ratio [8] was 5.

With `COc1cc(/C=C/C(=O)CC(=O)/C=C/c2ccc(O)c(OC)c2)ccc1O` [CURCUMIN] the MIC (Staphylococcus aureus [2]) was 250 µg/mL (≈ 679 µM), the solubility [12] was “Insoluble” and the MIC (Pseudomonas aeruginosa) was 250 µg/mL (≈ 679 µM). For the same compound, the IC50 [4] was 42.2 µg/mL (≈ 115 µM), the MIC (Staphylococcus aureus [6]) was 250 µg/mL (≈ 679 µM) and the MIC (Escherichia coli) was 250 µg/mL (≈ 679 µM). The MIC (Staphylococcus aureus [7]) was 250 µg/mL (≈ 679 µM), the Activity (HEK293 [13]) was “Toxic” and the Activity (Staphylococcus aureus [11]; dose 500.0 µg/ml) was “Active”. The Ratio [8] was 7.1.

In the case of `O=c1c(O)c(-c2ccc(O)c(O)c2)oc2cc(O)cc(O)c12` [QUERCETIN], the MIC (Staphylococcus aureus [2]) was 250 µg/mL (≈ 827 µM), the solubility [12] was “Insoluble” and the MIC (Pseudomonas aeruginosa) was 250 µg/mL (≈ 827 µM). The Activity (Staphylococcus aureus [10]) was “Active”, the IC50 [4] was 35.1 µg/mL (≈ 116 µM) and the MIC (Staphylococcus aureus [6]) was 250 µg/mL (≈ 827 µM). The MIC (Escherichia coli) was 250 µg/mL (≈ 827 µM), the MIC (Staphylococcus aureus [7]) was 250 µg/mL (≈ 827 µM) and the Activity (HEK293 [13]) was “Non-Toxic”. It also gave a Ratio [8] of 6.

Reference: ChEMBL document CHEMBL5055681, “Optimized protocols for assessing libraries of poorly soluble sortase A inhibitors for antibacterial activity against medically-relevant bacteria, toxicity and enzyme inhibition” (Bioorg Med Chem, 2021)
